Results on 39 compounds are retold here after patent US9770452B2, “Quinoxaline derivatives as GPR6 modulators” (Takeda Pharmaceutical Company Limited, priority 2012, dated 2017).

Structures can show the parent of a compound that is named as a salt.

The target of one assay is T1, GPR6 receptor (Homo sapiens, UniProt P46095).
T1 construct: expressed in transfected cells
T1 sequence (P46095 whole entry): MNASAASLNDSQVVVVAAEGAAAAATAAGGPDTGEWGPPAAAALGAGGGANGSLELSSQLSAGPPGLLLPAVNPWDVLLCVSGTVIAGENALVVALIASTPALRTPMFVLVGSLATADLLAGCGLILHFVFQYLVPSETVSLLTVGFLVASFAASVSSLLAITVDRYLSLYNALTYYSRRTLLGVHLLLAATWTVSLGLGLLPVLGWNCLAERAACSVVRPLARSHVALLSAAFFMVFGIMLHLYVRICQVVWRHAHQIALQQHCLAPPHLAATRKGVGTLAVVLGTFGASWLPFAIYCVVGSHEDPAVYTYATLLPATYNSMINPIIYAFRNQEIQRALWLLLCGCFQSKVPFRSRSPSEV
Briefly: Inhibition of cAMP Activity of GPR6 In Vitro Assay (CHO-K1 cells, HTRF cAMP). The format is cell-based. As to conditions: compounds of Compound Table 1; inhibition of constitutive cAMP activity of GPR6 expressed in CHO-K1 cells; approximate IC50; read-out: IC50. The essentials:
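CHO-K1 cells with doxycycline-induced (1 μg/ml, 20 h) GPR6 treated with compounds 45 min at 37 °C in Ringer's buffer (pH 7.4) with 0.5% fatty acid free BSA. Constitutive cAMP measured by Lance HTRF Ultra cAMP; IC50 from four-parameter logistic fit.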
By IC50 is commonly meant the midpoint of a concentration-inhibition curve. Turning to “(S)-2-(cyclopropylamino)-3-(4-((2,4-difluorophenyl)fluoromethyl)piperidin-1-yl)pyrido[3,4-b]pyrazine-7-carbonitrile [Cpd 547]”, the IC50 is 16 nM. Consider `Cc1cccc(CN2CCN(c3nc4cccnc4nc3NC3CC3)CC2)c1` [Cpd 2, N-cyclopropyl-2-(4-(3-methylbenzyl)piperazin-1-yl)pyrido[2,3-b]pyrazin-3-amine, 2,2,2-trifluoroacetic acid salt], for which the IC50 is 45400 nM.

As for `N#Cc1ccc(Nc2nc3ccccc3nc2N2CCN(Cc3cc(Cl)ccc3Cl)CC2)cc1` [Cpd 58, 4-((3-(4-(2,5-dichlorobenzyl)piperazin-1-yl)quinoxalin-2-yl)amino)benzonitrile], the IC50 came to 5530 nM. The same measure, in the same setting: with “3-(4-((4-bromo-2-fluorophenyl)sulfonyl)piperazin-1-yl)-2-(cyclopropylamino)quinoxaline-6-carbonitrile, 2,2,2-trifluoroacetic acid salt [Cpd 285]” the figure was 1360 nM. With “(R)-(2-(cyclopropylamino)-3-(4-((2,4-difluorophenyl)fluoromethyl)piperidin-1-yl)pyrido[3,4-b]pyrazin-7-yl)(morpholino)methanone, 2,2,2-trifluoroacetic acid salt [Cpd 580]”, the IC50 came out at 8 nM.

Regarding “2-((1-(2-(cyclopropylamino)pyrido[3,4-b]pyrazin-3-yl)piperidin-4-yl)oxy)benzonitrile [Cpd 574]”, the IC50 was 4810 nM. Regarding “(S)-2-(cyclopropylamino)-3-(4-((2,4-difluorophenyl)fluoromethyl)piperidin-1-yl)-N,N-dimethylpyrido[3,4-b]pyrazine-7-carboxamide, 2,2,2-trifluoroacetic acid salt [Cpd 577]”, the IC50 was found to be 4900 nM. Same read-out and setting: with “3-(4-(2-fluoro-4-methoxybenzyl)piperidin-1-yl)-N-isopropylpyrazino[2,3-d]pyridazin-2-amine, 2,2,2-trifluoroacetic acid salt [Cpd 642]” the figure was 54 nM; with “(1-(2-(cyclopropylamino)pyrido[3,4-b]pyrazin-3-yl)piperidin-4-yl)(2-(methylthio)phenyl)methanone, 2,2,2-trifluoroacetic acid salt [Cpd 581]”, 6 nM; with “(R)-3-(4-((2,4-difluorophenyl)fluoromethyl)piperidin-1-yl)-N-isopropylpyrazino[2,3-d]pyridazin-2-amine, 2,2,2-trifluoroacetic acid salt [Cpd 640]”, 72 nM. As for `Cc1cc(Br)ccc1C(=O)N1CCN(c2nc3ccccc3nc2NC2CC2)CC1` [Cpd 122, (4-bromo-2-methylphenyl)(4-(3-(cyclopropylamino)quinoxalin-2-yl)piperazin-1-yl)methanone, 2,2,2-trifluoroacetic acid salt], the IC50 came out at 10300 nM. On to “N-cyclopropyl-3-(4-((4-(trifluoromethyl)phenyl)sulfonyl)piperazin-1-yl)pyrido[3,4-b]pyrazin-2-amine, 2,2,2-trifluoroacetic acid salt [Cpd 302]”, for which the IC50 stood at 340 nM. Same read-out and setting: with “N-cyclopropyl-3-(4-(2-methoxyphenoxy)piperidin-1-yl)pyrido[3,4-b]pyrazin-2-amine, 2,2,2-trifluoroacetic acid salt [Cpd 559]” the figure was 67 nM; with `CC(C)CNc1nc2ccccc2nc1N1CCN(Cc2cc(Cl)ccc2Cl)CC1` [Cpd 110, 3-(4-(2,5-dichlorobenzyl)piperazin-1-yl)-N-isobutylquinoxalin-2-amine, 2,2,2-trifluoroacetic acid salt], 6030 nM; with “3-(cyclopropylamino)-2-(4-((2,5-difluorophenyl)fluoromethyl)piperidin-1-yl)quinoxaline-6-carbonitrile, 2,2,2-trifluoroacetic acid salt [Cpd 484]”, 29 nM. Regarding “2-(4-(4-chloro-2-fluorophenoxy)piperidin-1-yl)-3-(isopropylamino)quinoxaline-6-carbonitrile, hydrogen chloride salt [Cpd 626]”, the IC50 turned out to be 90 nM. On the same count and under the same terms, with “(2-(cyclopropylamino)-3-(4-(2,4-difluorobenzyl)piperazin-1-yl)pyrido[3,4-b]pyrazin-7-yl)(morpholino)methanone, 2,2,2-trifluoroacetic acid salt [Cpd 611]” the figure was 44 nM. On the same count and under the same terms, with “N-cyclopropyl-3-(4-(2,4-difluorobenzyl)piperidin-1-yl)-5-methylpyrido[3,4-b]pyrazin-2-amine, 2,2,2-trifluoroacetic acid salt [Cpd 493]” the figure was 9 nM; with “N-cyclopropyl-3-(4-(2,4-difluorobenzyl)piperidin-1-yl)pyrido[3,4-b]pyrazin-2-amine, 2,2,2-trifluoroacetic acid salt [Cpd 414]”, 390 nM.

“3-(4-(2,4-difluorophenoxy)piperidin-1-yl)-N-(2-methoxyethyl)pyrido[3,4-b]pyrazin-2-amine, 2,2,2-trifluoroacetic acid salt [Cpd 525]”: the IC50 amounted to 29 nM. Regarding “2-(cyclopropylamino)-3-(4-(2,4-difluorobenzyl)piperazin-1-yl)pyrido[3,4-b]pyrazine-5-carbonitrile, 2,2,2-trifluoroacetic acid salt [Cpd 612]”, the IC50 was 114 nM.

“6-bromo-N-cyclopropyl-3-(4-(2,4-difluorobenzyl)piperidin-1-yl)quinoxalin-2-amine, 2,2,2-trifluoroacetic acid salt [Cpd 495]”: the 50% inhibitory concentration (IC50) amounted to 18 nM. Same read-out and setting: with “(S)-3-(cyclopropylamino)-2-(4-((2,4-difluorophenyl)fluoromethyl)piperidin-1-yl)quinoxaline-6-carbonitrile [Cpd 509]” the figure was 49 nM; with “2-(cyclopropylamino)-3-(4-((2,4-difluorophenyl)fluoromethyl)piperidin-1-yl)quinoxaline-6-carbonitrile, 2,2,2-trifluoroacetic acid salt [Cpd 480]”, 72 nM.

Regarding “7-chloro-N-cyclopropyl-3-(4-(2,4-difluorophenoxy)piperidin-1-yl)pyrido[3,4-b]pyrazin-2-amine, 2,2,2-trifluoroacetic acid salt [Cpd 476]”, the IC50 was found to be 15 nM. Take “3-(4-(2,5-dichlorobenzyl)piperazin-1-yl)-N-(1,2,4-triazin-3-yl)quinoxalin-2-amine, 2,2,2-trifluoroacetic acid salt [Cpd 177]”: the half-inhibitory concentration (IC50) is 17800 nM. As for `Fc1ccc(F)c(CN2CCN(c3nc4ccccc4nc3NC3CC3)CC2)c1` [Cpd 81, N-cyclopropyl-3-(4-(2,5-difluorobenzyl)piperazin-1-yl)quinoxalin-2-amine, 2,2,2-trifluoroacetic acid salt], the IC50 is 4580 nM. On to `c1ccc2nc(N3CCN(Cc4ccncc4)CC3)c(NC3CC3)nc2c1` [Cpd 17, N-cyclopropyl-3-(4-(pyridin-4-ylmethyl)piperazin-1-yl)quinoxalin-2-amine, 2,2,2-trifluoroacetic acid salt], for which the IC50 was 25900 nM. The same measure, in the same setting: with “7-chloro-N-cyclopropyl-3-(4-((2,4-difluorophenyl)fluoromethyl)piperidin-1-yl)pyrido[3,4-b]pyrazin-2-amine, 2,2,2-trifluoroacetic acid salt [Cpd 489]” the figure was 7 nM; with “N-cyclobutyl-2-(4-(2,4-difluorophenoxy)piperidin-1-yl)pyrido[3,4-b]pyrazin-3-amine [Cpd 657]”, 8 nM; with “3-(4-(2,5-dichlorobenzyl)piperazin-1-yl)-N-(tetrahydro-2H-pyran-4-yl)quinoxalin-2-amine, 2,2,2-trifluoroacetic acid salt [Cpd 171]”, 1570 nM. With `Cc1cccc(CN2CCN(c3nc4ncccc4nc3NC3CC3)CC2)c1` [Cpd 3, N-cyclopropyl-3-(4-(3-methylbenzyl)piperazin-1-yl)pyrido[2,3-b]pyrazin-2-amine], the IC50 was determined as 24600 nM. For “N-cyclopropyl-3-(4-(pyridin-4-yloxy)piperidin-1-yl)pyrido[3,4-b]pyridin-2-amine [Cpd 554]”, the IC50 was 190 nM. Still for that read-out and setting: with “3-(4-(2,5-dichlorobenzyl)piperazin-1-yl)-N-(2-ethoxyethyl)quinoxalin-2-amine, 2,2,2-trifluoroacetic acid salt [Cpd 167]” the figure was 3330 nM. As to “N-cyclopropyl-2-(4-(2,5-difluorobenzyl)piperazin-1-yl)pyrido[3,4-b]pyrazin-3-amine, 2,2,2-trifluoroacetic acid salt [Cpd 292]”, the IC50 was 56 nM.

“8-chloro-3-(4-(5-chloro-2-fluorobenzyl)piperazin-1-yl)-N-cyclopropylpyrido[3,4-b]pyrazin-2-amine, 2,2,2-trifluoroacetic acid salt [Cpd 351]”: the IC50 stood at 62 nM.

The same assay, now with this note: compounds of Compound Table 2; inhibition of constitutive cAMP activity of GPR6 expressed in CHO-K1 cells; approximate IC50; read-out: IC50.
With `CC1CN(C(=O)c2cc(Cl)ccc2Cl)CCN1c1nc2ccccc2nc1NC1CC1` (stereo not drawn) [Compound Table 2: Cpd 8, (4-(3-(cyclopropylamino)quinoxalin-2-yl)-3-methylpiperazin-1-yl)(2,5-dichlorophenyl)methanone, 2,2,2-trifluoroacetic acid salt], the IC50 was found to be 79600 nM. As to `CC1CN(Cc2cc(Cl)ccc2Cl)CCN1c1nc2ccccc2nc1NC1CC1` (stereo not drawn) [Compound Table 2: Cpd 7, N-cyclopropyl-3-(4-(2,5-dichlorobenzyl)-2-methylpiperazin-1-yl)quinoxalin-2-amine], the IC50 stood at 6640 nM. `N#Cc1ccc2nc(NC3CC3)c(C3CCN(Cc4cc(Cl)ccc4Cl)CC3)nc2c1` [Compound Table 2: Cpd 3, 2-(cyclopropylamino)-3-(1-(2,5-dichlorobenzyl)piperidin-4-yl)quinoxaline-6-carbonitrile, 2,2,2-trifluoroacetic acid salt]: the IC50 stood at 840 nM.
